Data published in paper PMC13054725 (2026).

What was measured:
[1] = test system: Dopa-A′ (DNA, aptamer) CGACGCCAGTTTGAAGGTTCGTTCGCAGGTGTGGAGTGACGTCG; experiment: ITC; conditions: PBS 1x, 2 mM Mg2+; 1x PBS, 2 mM MgCl2, 25 °C; one-site fit
[2] = test system: Dopa-A (DA-A) (DNA, aptamer) GACGACTCCAGTTTGAAGGTTCGTTCGCAGGTGTGGAGTGAAGTCGTC; experiment: ITC; conditions: PBS 1x, 2 mM Mg2+; 1x PBS, 2 mM MgCl2, 25 °C; one-site fit

Kd [1]: 3.5 µM | Kd [2]: 2.7 µM
SMILES: NCCc1ccc(O)c(O)c1
